Here are results for seven compounds from US9598391B2, “Substituted chroman compounds as calcium sensing receptor modulators” (LUPIN LIMITED, priority 2012, dated 2017).

The assay has as its target T1, Calcium Sensing Receptor (CaSR) (Homo sapiens, UniProt P41180).
T1 construct: expressed in transfected cells
T1 sequence (P41180 20-1078): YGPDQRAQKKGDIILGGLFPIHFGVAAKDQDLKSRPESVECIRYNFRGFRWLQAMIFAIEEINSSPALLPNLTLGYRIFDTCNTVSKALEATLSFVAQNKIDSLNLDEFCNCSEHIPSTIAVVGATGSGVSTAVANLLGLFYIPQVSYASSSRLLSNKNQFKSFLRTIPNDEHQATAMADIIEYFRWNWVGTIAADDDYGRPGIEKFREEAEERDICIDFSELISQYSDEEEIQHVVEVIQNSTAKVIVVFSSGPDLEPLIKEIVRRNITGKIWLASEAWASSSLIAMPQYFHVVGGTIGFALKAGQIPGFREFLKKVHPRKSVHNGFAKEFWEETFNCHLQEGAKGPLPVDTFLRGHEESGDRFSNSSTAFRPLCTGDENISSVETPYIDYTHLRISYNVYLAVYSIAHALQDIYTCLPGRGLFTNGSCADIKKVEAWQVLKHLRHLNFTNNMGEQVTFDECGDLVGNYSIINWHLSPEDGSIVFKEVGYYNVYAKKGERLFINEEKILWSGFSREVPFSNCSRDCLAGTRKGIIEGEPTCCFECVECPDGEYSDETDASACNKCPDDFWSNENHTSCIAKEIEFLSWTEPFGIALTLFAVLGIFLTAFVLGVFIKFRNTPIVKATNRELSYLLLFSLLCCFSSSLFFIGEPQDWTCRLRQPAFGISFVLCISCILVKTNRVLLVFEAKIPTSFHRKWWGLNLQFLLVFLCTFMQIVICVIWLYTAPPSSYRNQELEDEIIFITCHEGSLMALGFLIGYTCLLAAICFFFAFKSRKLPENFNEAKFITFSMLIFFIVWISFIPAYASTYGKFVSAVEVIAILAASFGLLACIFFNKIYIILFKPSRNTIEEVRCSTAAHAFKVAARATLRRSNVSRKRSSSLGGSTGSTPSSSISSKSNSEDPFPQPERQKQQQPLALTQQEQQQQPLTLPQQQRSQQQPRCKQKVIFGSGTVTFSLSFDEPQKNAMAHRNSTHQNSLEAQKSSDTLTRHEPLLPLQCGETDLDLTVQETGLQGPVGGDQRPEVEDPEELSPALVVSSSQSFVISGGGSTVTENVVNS
The experiment in a line: In-vitro assay of calcimimetics through modulation of Calcium Sensing Receptor (intracellular calcium, FLIPR). The class given is cell-based. Particulars: HEK293 cells stably expressing hCaSR, increase in intracellular calcium, Fluo4NW dye, 0.3 mM CaCl2, 8-point assay, read-out: EC50 Range. How it is done: In-vitro assay method of Calcimimetics through modulation of Calcium Sensing Receptor (CaSR):
The ability of the compounds to modulate Calcium sensing receptor is determined by measuring an increase in intracellular calcium [Ca^2+]i. Stably transfected HEK293 cells expressing hCaSR_pTriEx-3 hygro vector are developed. Cells are grown overnight on a 96-well plate to 80% confluency in Ham's F12 containing 20% FBS at 37° C., 5% CO2. Subsequently, cells are washed extensively with 20 mM HEPES buffer containing 126 mM […], 1 mM MgCl2 and 4 mM KCl to remove serum components that might interfere with the assay. Cells are loaded with calcium sensing Fluo4NW dye in HEPES base buffer containing 0.1% BSA and 1 mg/ml glucose for 30 minutes to measure changes in intracellular calcium. The activities of the compounds are measured in FLIPR using 0.3 mM CaCl2 in 20 mM HEPES base buffer. The effectiveness of the compound to modulate receptor activity is determined by calculating the EC50 responses for that compound in an 8-point assay and plotted using GraphPad Prism 5.

Each structure is given as a SMILES string. pEC50: −log10 of the molar value. Counter-ions that a name gives are not always drawn.

In the case of `COc1cc([C@@H](C)NC[C@H]2C[C@@H](c3ccc(C)c(C(=O)O)c3)c3ccccc3O2)ccc1F` [Example 116, 5-((2R,4S)-2-((((R)-1-(4-Fluoro-3-methoxyphenyl)ethyl)amino)methyl)chroman-4-yl)-2-methyl benzoic acid hydrochloride], the pEC50 is 6.70 to 7.30. Next, `Cc1ccc([C@@H]2C[C@H](CN[C@H](C)c3ccc(F)c4ccccc34)Oc3ccccc32)cc1C(=O)O` [Example 119b, 5-((2R,4S)-2-((((R)-1-(4-Fluoronaphthalen-1-yl)ethyl)amino)methyl)chroman-4-yl)-2-methyl benzoic acid hydrochloride]: greater than 7.70; `Cc1ccc([C@@H]2C[C@H](CCN[C@H](C)c3cccc4ccccc34)Oc3ccccc32)cc1C(=O)O` [Example 124, 2-Methyl-5-((2R,4S)-2-(2-(((R)-1-(naphthalen-1-yl)ethyl)amino)ethyl)chroman-4-yl)benzoic acid hydrochloride]: greater than 7.70; `C[C@@H](NCCC[C@H]1C[C@@H](c2ccc(C(=O)O)cc2)c2ccccc2O1)c1ccc(F)c2ccccc12` [Example 136, 4-((2S,4S)-2-(3-(((R)-1-(4-Fluoronaphthalen-1-yl)ethyl)amino)propyl)chroman-4-yl)benzoic acid hydrochloride]: greater than 7.70. In the case of `C[C@@H](NC[C@H]1C[C@@H](c2cccc(C(=O)NCC(=O)O)c2)c2ccccc2O1)c1cccc2ccccc12` [Example 140, 2-(3-((2R,4S)-2-((((R)-1-(Naphthalen-1-yl)ethyl)amino)methyl)chroman-4-yl)benzamido) acetic acid hydrochloride], the pEC50 is greater than 7.70. Next, `CCN(C)C(=O)c1cc([C@@H]2C[C@H](CN[C@H](C)c3cccc4ccccc34)Oc3ccccc32)ccc1C` [Example 145, N-Ethyl-N,2-dimethyl-5-((2R,4S)-2-((((R)-1-(naphthalen-1-yl)ethyl)amino)methyl)chroman-4-yl)benzamide hydrochloride]: 6.70 to 7.30; `CCN(CC)C(=O)c1cc([C@@H]2C[C@H](CN[C@H](C)c3cccc4ccccc34)Oc3ccccc32)ccc1C` [Example 146, N,N-Diethyl-2-methyl-5-((2R,4S)-2-((((R)-1-(naphthalen-1-yl)ethyl)amino)methyl)chroman-4-yl)benzamide hydrochloride]: 7.30 to 7.70.

As usually defined, the pEC50 is −log10 of the EC50, conventionally taken in molar units.
